{
  "source": "patent US12594267B2",
  "about": "“Capsid inhibitors for the treatment of HIV” (Gilead Sciences, Inc., priority 2018, dated 2026)",
  "experiment": "PK after subcutaneous administration of solutions in dogs",
  "format": "in vivo, Beagle dog",
  "conditions": "for Plasma concentration: SC 12 mg/kg, 300 mg/mL (22.6% water/50% PEG 300/1.1% NaOH/26.3% Formula (Ia))",
  "protocol": "Formulations containing the compound of Formula (Ia) were prepared as aqueous solutions or oral formulations and administered subcutaneously to rats, dogs, cynomolgus monkey, and/or rhesus monkey.\nA solution of the compound of Formula (Ia) in 10% ethanol, 13% water, and 77% PEG 200 (400 mg/mL) was prepared. The solution was administered subcutaneously to dogs at a dose of 12 mg/kg and rats at a dose of 50 mg/kg and the pharmacokinetic (PK) profile was determined. […] In both species, plasma concentrations of the compound of Formula (Ia) were maintained above the target trough concentration of 20 nM (corresponding to an IQ of 5) for at least 84 days (12 weeks).\nA solution of the compound of Formula (Ia) in 15% water and 85.0 PEG 300 (400 mg/mL) was prepared. The solution was administered subcutaneously to male beagle dogs at a dose level of 12 mg/kg and dose volume of […] and the pharmacokinetic (PK) profile was determined.\nA solution of the compound of Formula (a) sodium salt in water and 300 (300 mg/mL) was prepared that contained 22.6% water/50% PEG 300/1.1% NaOH/26.3% Formula (Ia). The solution was administered subcutaneously to male beagle dogs at a dose level of 12 mg/kg and dose volume of […] and the pharmacokinetic (PK) profile was determined.\nA 300 mg/ml solution of a compound of Formula (Ia) having 9.8 w/w % water, 65.0 w/w % PEG 300, and 25.2 w/w % of the compound of Formula (Ia) was prepared. The solution was administered subcutaneously to rats at a dose of 50 mg/kg and to dogs at a dose of 12 mg/kg and the pharmacokinetic (PK) profile was determined. […] In the rat, plasma concentrations of the compound of Formula (Ia) were maintained above the target trough concentration of 20 nM for at least 168 days (24 weeks). In the dog, plasma concentrations of the compound of Formula (Ia) were maintained above the target trough concentration of 20 nM for at least 84 days (12 weeks).\n(§1) A 150 mg/ml solution of a compound of Formula (Ia) having 27.92 w/w % water, 58.04 w/w % PEG 300, 13.47 w/w % of a compound of Formula (Ia), and 1.1 w/w % NaOH was prepared. The solution was administered subcutaneously to rats at a dose of 50 mg/kg and to dogs at a dose of 12 mg/kg and the pharmacokinetic (PK) profile was determined. […] In the rat, plasma concentrations of the compound of Formula (Ia) were maintained above the target trough concentration of 20 nM for at least 126 days (18 weeks). In the dog, plasma concentrations of the compound of Formula (Ia) were maintained above the target trough concentration of 20 nM for at least 56 days (8 weeks).\nas §1, with “300” for “150”, “23.2” for “27.92”, “50.0” for “58.04”, “25.7” for “13.47”\nA 50 mg/ml solution of a compound of Formula (Ia) having 30.07 w/w % water, 64.40 w/w % PEG 300, 4.68 w/w % of a sodium salt of the compound of Formula (Ia), and 0.85 w/w % poloxamer 188 was prepared. The solution was administered subcutaneously to rats at a dose of 50 mg/kg and to dogs at a dose of 6 mg/kg and the pharmacokinetic (PK) profile was determined. […] In the rat, plasma concentrations of the compound of Formula (Ia) were maintained above the target trough concentration of 20 nM for at least 28 days (4 weeks). In the dog, plasma concentrations of the compound of Formula (Ia) were maintained above the target trough concentration of 20 nM for at least 14 days (2 weeks). […]",
  "key": {"[1]": {"conditions": "male beagle dog, single SC 12 mg/kg, 300 mg/mL, 50, 22.6, 1.1, 26.3 w/w % PEG300:Water:NaOH:Formula (Ia), mean ± SD, n=3"}},
  "data": [
    {"smiles": "CC(C)(C#Cc1ccc(-c2ccc(Cl)c3c([N-]S(C)(=O)=O)nn(CC(F)(F)F)c23)c([C@H](Cc2cc(F)cc(F)c2)NC(=O)Cn2nc(C(F)(F)F)c3c2C(F)(F)[C@@H]2C[C@H]32)n1)S(C)(=O)=O.[Na+]", "note": "[Formula (Ia) sodium salt]", "values": [
      {"measurement": "Plasma concentration", "setting": "dog #1, 0 h", "value": "BLQ"},
      {"measurement": "Plasma concentration", "setting": "dog #1, 1.0 h", "value": 14.0, "unit": "nM"},
      {"measurement": "Plasma concentration", "setting": "dog #1, 3.0 h", "value": 26.0, "unit": "nM"},
      {"measurement": "Plasma concentration", "setting": "dog #1, 8.0 h", "value": 56.3, "unit": "nM"},
      {"measurement": "Plasma concentration", "setting": "dog #1, 24 h", "value": 57.1, "unit": "nM"},
      {"measurement": "Plasma concentration", "setting": "dog #1, 48 h", "value": 71.1, "unit": "nM"},
      {"measurement": "Plasma concentration", "setting": "dog #1, 72 h", "value": 51.5, "unit": "nM"},
      {"measurement": "Plasma concentration", "setting": "dog #1, 96 h", "value": 46.4, "unit": "nM"},
      {"measurement": "Plasma concentration", "setting": "dog #1, 168 h", "value": 47.7, "unit": "nM"},
      {"measurement": "Plasma concentration", "setting": "dog #2, 0 h", "value": "BLQ"},
      {"measurement": "Plasma concentration", "setting": "dog #2, 1.0 h", "value": 7.2, "unit": "nM"},
      {"measurement": "Plasma concentration", "setting": "dog #2, 3.0 h", "value": 17.0, "unit": "nM"},
      {"measurement": "Plasma concentration", "setting": "dog #2, 8.0 h", "value": 25.8, "unit": "nM"},
      {"measurement": "Plasma concentration", "setting": "dog #2, 24 h", "value": 25.4, "unit": "nM"},
      {"measurement": "Plasma concentration", "setting": "dog #2, 48 h", "value": 29.0, "unit": "nM"},
      {"measurement": "Plasma concentration", "setting": "dog #2, 72 h", "value": 16.2, "unit": "nM"},
      {"measurement": "Plasma concentration", "setting": "dog #2, 96 h", "value": 14.0, "unit": "nM"},
      {"measurement": "Plasma concentration", "setting": "dog #2, 168 h", "value": 13.6, "unit": "nM"},
      {"measurement": "Plasma concentration", "setting": "dog #3, 0 h", "value": "BLQ"},
      {"measurement": "Plasma concentration", "setting": "dog #3, 1.0 h", "value": 8.6, "unit": "nM"},
      {"measurement": "Plasma concentration", "setting": "dog #3, 3.0 h", "value": 16.8, "unit": "nM"},
      {"measurement": "Plasma concentration", "setting": "dog #3, 8.0 h", "value": 32.1, "unit": "nM"},
      {"measurement": "Plasma concentration", "setting": "dog #3, 24 h", "value": 54.5, "unit": "nM"},
      {"measurement": "Plasma concentration", "setting": "dog #3, 48 h", "value": 57.8, "unit": "nM"},
      {"measurement": "Plasma concentration", "setting": "dog #3, 72 h", "value": 58.0, "unit": "nM"},
      {"measurement": "Plasma concentration", "setting": "dog #3, 96 h", "value": 59.2, "unit": "nM"},
      {"measurement": "Plasma concentration", "setting": "dog #3, 168 h", "value": 43.1, "unit": "nM"},
      {"measurement": "Plasma concentration", "setting": "dog mean, n=3, 1.0 h", "value": 10.0, "unit": "nM"},
      {"measurement": "Plasma concentration", "setting": "dog mean, n=3, 3.0 h", "value": 19.9, "unit": "nM"},
      {"measurement": "Plasma concentration", "setting": "dog mean, n=3, 8.0 h", "value": 38.1, "unit": "nM"},
      {"measurement": "Plasma concentration", "setting": "dog mean, n=3, 24 h", "value": 45.7, "unit": "nM"},
      {"measurement": "Plasma concentration", "setting": "dog mean, n=3, 48 h", "value": 52.6, "unit": "nM"},
      {"measurement": "Plasma concentration", "setting": "dog mean, n=3, 72 h", "value": 41.9, "unit": "nM"},
      {"measurement": "Plasma concentration", "setting": "dog mean, n=3, 96 h", "value": 39.9, "unit": "nM"},
      {"measurement": "Plasma concentration", "setting": "dog mean, n=3, 168 h", "value": 34.8, "unit": "nM"},
      {"measurement": "AUC0-24h", "setting": "[1]", "value": "0.85 ± 0.31", "unit": "µM·h"},
      {"measurement": "AUC0-48h", "setting": "[1]", "value": "2.03 ± 0.76", "unit": "µM·h"},
      {"measurement": "AUC0-72h", "setting": "[1]", "value": "3.16 ± 1.27", "unit": "µM·h"},
      {"measurement": "AUC0-168h", "setting": "[1]", "value": "6.83 ± 3.24", "unit": "µM·h"}
    ]}
  ]
}
